Here are results for one compound from patent US20250255888A1, “Use of Baby Aspirin with Diphenhydramine or other Sleep Aids” (priority 2024, published 2025).

A short description of this series: Self-reported use as a sleep aid at night: sleep and morning aftereffects (applicant and two friends). The format is in vivo. The conditions noted are these: patent applicant, taken for sleep, morning after; worse with less than seven hours of sleep. The text has this: They further recommended same to two of their close friends who had complained of same aftereffects of Benadryl.
When aspirin was used with other sleep aids that contain diphenhydramine as an active ingredient, similar result was obtained.

Structures can show the parent of a compound that is named as a salt.

In the case of `CN(C)CCOC(c1ccccc1)c1ccccc1` [Benadryl, diphenhydramine HCL], the “aftereffects in the morning (poor sleep quality, lingering drowsiness, difficulty concentrating)” value is on record as “would experience some of the aftereffects of Benadryl such as poor sleep quality, lingering drowsiness or difficulty concentrating”.
